Measured values published in ChEMBL document CHEMBL4118189, “Discovery of novel N-hydroxy-2-arylisoindoline-4-carboxamides as potent and selective inhibitors of HDAC11” (Bioorg Med Chem Lett, 2018).

Columns and labels:
Histone deacetylase 8 = target: T1, Histone deacetylase 8 (Homo sapiens, UniProt Q9BY41); assay: Inhibition of full length recombinant human HDAC8 using fluorescent-labeled peptide as substrate by electrophoretic mobility shift assay
T1 sequence (Q9BY41 whole entry): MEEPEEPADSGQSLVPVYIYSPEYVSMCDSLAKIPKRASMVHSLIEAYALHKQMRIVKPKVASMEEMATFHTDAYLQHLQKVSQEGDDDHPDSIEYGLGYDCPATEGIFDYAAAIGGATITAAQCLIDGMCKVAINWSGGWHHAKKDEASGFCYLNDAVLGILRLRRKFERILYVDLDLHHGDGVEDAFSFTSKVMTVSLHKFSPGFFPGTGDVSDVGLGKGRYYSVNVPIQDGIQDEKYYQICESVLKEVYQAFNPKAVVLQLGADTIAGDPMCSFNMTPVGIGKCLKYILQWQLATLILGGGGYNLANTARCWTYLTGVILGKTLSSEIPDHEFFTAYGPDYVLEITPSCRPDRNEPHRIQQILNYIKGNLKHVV

Histone deacetylase 4 = Histone deacetylase 4 (Homo sapiens, UniProt P56524); assay: Inhibition of full length recombinant human HDAC4 using fluorescent-labeled peptide as substrate by electrophoretic mobility shift assay
[1] = Permeability of the compound by PAMPA; format: ADME; conditions: read-out: permeability
[2] = target: T2, Polyamine deacetylase HDAC10 (Homo sapiens, UniProt Q969S8); assay: Inhibition of full length recombinant human HDAC10 using fluorescent-labeled peptide as substrate by electrophoretic mobility shift assay
T2 sequence (Q969S8 whole entry): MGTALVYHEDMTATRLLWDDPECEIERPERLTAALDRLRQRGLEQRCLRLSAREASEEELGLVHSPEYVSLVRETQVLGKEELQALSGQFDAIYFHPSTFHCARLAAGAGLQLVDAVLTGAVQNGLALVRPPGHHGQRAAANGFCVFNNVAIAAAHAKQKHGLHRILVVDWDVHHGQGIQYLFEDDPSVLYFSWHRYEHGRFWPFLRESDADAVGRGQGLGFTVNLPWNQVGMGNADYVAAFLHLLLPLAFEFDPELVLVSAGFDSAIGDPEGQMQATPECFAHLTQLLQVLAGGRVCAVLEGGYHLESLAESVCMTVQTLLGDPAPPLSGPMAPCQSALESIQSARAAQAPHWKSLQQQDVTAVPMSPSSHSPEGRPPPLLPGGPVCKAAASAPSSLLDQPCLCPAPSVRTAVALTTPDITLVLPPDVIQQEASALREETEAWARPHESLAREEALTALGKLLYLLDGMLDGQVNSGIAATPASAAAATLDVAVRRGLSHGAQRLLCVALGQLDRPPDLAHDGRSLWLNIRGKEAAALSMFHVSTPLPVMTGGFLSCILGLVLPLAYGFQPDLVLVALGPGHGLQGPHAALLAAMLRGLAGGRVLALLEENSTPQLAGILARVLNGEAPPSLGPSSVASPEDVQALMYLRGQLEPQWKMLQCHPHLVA

[3] = Intrinsic clearance in mouse liver microsomes; format: ADME, microsome; conditions: read-out: CLH
Histone deacetylase 1 = Histone deacetylase 1 (Homo sapiens, UniProt Q13547); assay: Inhibition of full length recombinant human HDAC1 using fluorescent-labeled peptide as substrate by electrophoretic mobility shift assay
Histone deacetylase 11 = target: T3, Histone deacetylase 11 (Homo sapiens, UniProt Q96DB2); assay: Inhibition of full length recombinant human HDAC11 expressed in baculoviral expression system using FAM-RHKK as substrate by electrophoretic mobility shift assay
T3 sequence (Q96DB2 whole entry): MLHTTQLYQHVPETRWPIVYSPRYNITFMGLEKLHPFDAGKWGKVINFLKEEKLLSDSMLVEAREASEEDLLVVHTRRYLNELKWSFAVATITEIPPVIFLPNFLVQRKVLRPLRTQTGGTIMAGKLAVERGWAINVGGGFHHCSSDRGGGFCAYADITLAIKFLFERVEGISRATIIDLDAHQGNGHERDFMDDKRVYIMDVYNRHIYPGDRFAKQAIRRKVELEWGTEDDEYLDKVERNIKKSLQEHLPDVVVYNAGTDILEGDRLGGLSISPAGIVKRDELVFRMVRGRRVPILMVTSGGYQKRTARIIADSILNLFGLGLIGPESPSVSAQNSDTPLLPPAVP

[4] = target: T4, Protein deacetylase HDAC6 (Homo sapiens, UniProt Q9UBN7); assay: Inhibition of full length recombinant human HDAC6 using fluorescent-labeled peptide as substrate by electrophoretic mobility shift assay
T4 sequence (Q9UBN7 whole entry): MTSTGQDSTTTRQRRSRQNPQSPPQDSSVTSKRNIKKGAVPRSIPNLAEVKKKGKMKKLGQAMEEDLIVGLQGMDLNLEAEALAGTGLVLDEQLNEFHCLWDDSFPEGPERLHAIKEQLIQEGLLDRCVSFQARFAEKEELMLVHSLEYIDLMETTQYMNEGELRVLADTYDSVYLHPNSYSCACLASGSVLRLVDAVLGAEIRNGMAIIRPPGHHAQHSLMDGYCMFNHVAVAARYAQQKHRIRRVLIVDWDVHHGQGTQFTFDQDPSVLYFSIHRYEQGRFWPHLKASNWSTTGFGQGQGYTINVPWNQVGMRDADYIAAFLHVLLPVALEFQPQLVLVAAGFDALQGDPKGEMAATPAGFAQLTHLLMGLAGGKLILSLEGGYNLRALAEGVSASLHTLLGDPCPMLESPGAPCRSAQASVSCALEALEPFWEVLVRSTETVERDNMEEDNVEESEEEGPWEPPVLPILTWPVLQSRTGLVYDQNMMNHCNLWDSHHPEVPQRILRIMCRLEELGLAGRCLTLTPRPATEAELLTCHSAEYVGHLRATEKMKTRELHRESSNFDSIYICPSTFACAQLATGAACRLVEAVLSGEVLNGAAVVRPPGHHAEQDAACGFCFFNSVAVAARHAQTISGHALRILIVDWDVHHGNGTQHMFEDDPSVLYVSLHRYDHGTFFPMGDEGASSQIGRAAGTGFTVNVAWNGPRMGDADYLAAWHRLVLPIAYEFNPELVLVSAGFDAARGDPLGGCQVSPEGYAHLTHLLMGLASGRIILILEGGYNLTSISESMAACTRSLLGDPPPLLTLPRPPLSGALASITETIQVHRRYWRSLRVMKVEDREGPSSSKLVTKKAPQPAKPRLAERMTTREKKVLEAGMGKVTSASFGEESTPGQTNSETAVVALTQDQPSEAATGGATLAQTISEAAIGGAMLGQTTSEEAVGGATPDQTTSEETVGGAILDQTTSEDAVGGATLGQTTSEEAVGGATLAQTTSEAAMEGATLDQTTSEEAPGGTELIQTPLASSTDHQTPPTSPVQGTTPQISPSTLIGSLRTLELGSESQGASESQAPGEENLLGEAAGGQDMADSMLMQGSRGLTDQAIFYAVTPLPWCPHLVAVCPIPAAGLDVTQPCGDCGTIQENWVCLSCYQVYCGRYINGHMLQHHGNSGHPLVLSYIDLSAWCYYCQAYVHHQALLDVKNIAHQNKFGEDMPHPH

Histone deacetylase 2 = Histone deacetylase 2 (Homo sapiens, UniProt Q92769); assay: Inhibition of full length recombinant human HDAC2 using fluorescent-labeled peptide as substrate by electrophoretic mobility shift assay
Histone deacetylase 2, sequence (Q92769 whole entry): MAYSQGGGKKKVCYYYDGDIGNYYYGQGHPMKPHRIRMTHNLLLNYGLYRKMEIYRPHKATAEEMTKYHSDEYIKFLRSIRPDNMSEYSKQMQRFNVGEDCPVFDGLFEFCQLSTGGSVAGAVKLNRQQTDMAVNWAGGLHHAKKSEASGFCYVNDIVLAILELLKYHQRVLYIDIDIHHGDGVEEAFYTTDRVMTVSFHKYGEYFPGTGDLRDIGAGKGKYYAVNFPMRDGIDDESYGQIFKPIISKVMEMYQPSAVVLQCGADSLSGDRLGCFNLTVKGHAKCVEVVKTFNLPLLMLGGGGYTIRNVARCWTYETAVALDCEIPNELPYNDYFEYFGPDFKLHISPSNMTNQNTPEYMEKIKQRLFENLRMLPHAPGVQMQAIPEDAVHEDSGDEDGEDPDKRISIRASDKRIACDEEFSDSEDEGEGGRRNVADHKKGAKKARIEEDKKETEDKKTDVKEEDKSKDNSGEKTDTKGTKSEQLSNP

Histone deacetylase 4, sequence (P56524 whole entry): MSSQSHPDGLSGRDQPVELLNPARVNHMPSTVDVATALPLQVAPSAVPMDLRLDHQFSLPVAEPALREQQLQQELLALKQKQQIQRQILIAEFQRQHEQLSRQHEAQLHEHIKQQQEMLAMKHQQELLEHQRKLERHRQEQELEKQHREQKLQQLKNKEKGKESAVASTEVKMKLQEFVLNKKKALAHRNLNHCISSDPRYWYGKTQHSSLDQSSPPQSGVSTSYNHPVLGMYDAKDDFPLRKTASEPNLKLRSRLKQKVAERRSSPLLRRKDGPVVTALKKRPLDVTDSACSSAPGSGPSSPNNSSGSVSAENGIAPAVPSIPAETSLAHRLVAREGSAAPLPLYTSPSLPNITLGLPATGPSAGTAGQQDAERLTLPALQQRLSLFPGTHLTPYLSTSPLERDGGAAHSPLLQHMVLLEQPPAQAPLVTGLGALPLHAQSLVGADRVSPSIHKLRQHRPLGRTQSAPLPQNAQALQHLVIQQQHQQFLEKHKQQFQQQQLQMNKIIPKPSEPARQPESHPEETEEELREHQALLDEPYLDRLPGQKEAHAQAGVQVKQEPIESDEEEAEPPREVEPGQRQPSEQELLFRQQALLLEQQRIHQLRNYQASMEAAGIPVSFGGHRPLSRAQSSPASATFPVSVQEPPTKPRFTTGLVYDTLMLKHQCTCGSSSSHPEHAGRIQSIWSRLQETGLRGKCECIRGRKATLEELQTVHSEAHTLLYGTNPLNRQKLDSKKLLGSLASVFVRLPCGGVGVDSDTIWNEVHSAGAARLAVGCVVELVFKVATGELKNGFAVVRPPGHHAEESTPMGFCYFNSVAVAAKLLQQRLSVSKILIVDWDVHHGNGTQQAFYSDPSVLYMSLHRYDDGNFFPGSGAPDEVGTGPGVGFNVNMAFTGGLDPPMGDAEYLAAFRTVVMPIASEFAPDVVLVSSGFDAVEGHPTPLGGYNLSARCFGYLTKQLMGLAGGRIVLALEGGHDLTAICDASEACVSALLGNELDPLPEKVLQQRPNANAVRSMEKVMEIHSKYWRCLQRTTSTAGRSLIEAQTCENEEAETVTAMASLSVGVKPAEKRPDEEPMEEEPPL
Histone deacetylase 1, sequence (Q13547 whole entry): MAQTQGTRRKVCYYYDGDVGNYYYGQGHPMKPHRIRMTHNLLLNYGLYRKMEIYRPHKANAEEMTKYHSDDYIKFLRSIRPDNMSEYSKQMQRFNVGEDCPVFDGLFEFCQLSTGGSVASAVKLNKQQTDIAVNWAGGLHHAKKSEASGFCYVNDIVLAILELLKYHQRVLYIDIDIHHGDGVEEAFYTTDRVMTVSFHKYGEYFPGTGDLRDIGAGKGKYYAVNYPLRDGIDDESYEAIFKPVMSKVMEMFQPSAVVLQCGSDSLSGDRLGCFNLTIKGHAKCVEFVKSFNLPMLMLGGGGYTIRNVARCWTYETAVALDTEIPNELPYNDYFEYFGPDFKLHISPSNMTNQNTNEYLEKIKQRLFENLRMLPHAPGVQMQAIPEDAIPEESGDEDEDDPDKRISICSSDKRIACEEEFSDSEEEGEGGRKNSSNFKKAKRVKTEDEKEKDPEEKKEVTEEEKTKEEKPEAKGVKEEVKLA

IC50 (Histone deacetylase 8): > 10 µM
IC50 (Histone deacetylase 4): > 10 µM
Papp [1]: 17 ×10⁻⁶ cm/s
IC50 [2]: > 10 µM
microsomal CLint [3]: 7 µL/min/mg
IC50 (Histone deacetylase 1): > 10 µM
IC50 (Histone deacetylase 11): > 10 µM
IC50 [4]: > 10 µM
IC50 (Histone deacetylase 2): > 10 µM
SMILES: CC1(C)c2cccc(C(N)=O)c2CN1c1cnc(C(F)(F)F)cn1
